# Literature values as cited in US12083128B2, “Use of medications with neuroprotective properties to prevent or reduce the risk of ischemia-reperfusion injury in a subject” (priority 2015, dated 2024).
# Where two headings read alike, the source gives them in different places.
# What was measured:
# [1] = intravitreal injections for AMD, 49 eyes followed for 12 months; cited from earlier work
# [2] = test system: endothelin 1 induced ischemic retinal injury; conditions: daily topical administration, animals; cited from earlier work
# retinal gangion cells [3] = conditions: in vitro; cited from earlier work
# retinal gangion cells [4] = conditions: in vivo, animals; cited from earlier work
# optic nerve blood flow = conditions: animal models; cited from earlier work
Molecule,RNFL thinning [1],RNFL thickness in treated eyes [2],protection against endothelin 1 induced ischemic retinal injury [2],protection of retinal ganglion cells from apoptosis (retinal gangion cells [3]),protection of retinal ganglion cells from apoptosis (retinal gangion cells [4]),optic nerve blood flow (optic nerve blood flow)
Ranibizumab,caused significant RNFL thinning,,,,,
CC(C)OC(=O)CCC/C=C\C[C@@H]1[C@@H](/C=C/C(F)(F)COc2ccccc2)[C@H](O)C[C@@H]1O [tafluprost],,thicker in treated eyes,protective,protects retinal gangion cells from apoptosis,protects retinal gangion cells from apoptosis,improved optic nerve blood flow
